Earlier results on 2 compounds are cited in patent US20130028992A1, “Herbal-Based Solution for Treating Symptoms of Nasal Conditions” (priority 2011, published 2013).

In series [1] the test system is 25 strains of yeast, bacteria and mold.
A further series concerns platelet aggregation. To be noted: case of a heart attack.

For the compound `C=CCN=C=S` [allyl isothiocyanate], the “antimicrobial effect of vapor” value in series [1] is “can combat 25 strains of yeast, bacteria and mold to varying degrees”.
Take `CC(=O)Oc1ccccc1C(=O)O` [aspirin]: the “time required to take effect” value in the series on platelet aggregation is “thirty”.
